In patent US20100069451A1, “SALT OF 3-BENZYL-2-METHYL-2,3,3A,4,5,6,7, 7A- OCTAHYDROBENZO[D]ISOXAZOL-4-ONE” (ABIOGEN PHARMA S.P.A, priority 2006, published 2010):
Structures can show the parent of a compound that is named as a salt. Where two headings read alike, the source gives them in different places.

What was measured:
[1] = Stability test of BTG 1640 salts under storage conditions: total impurities; format: physicochemical; conditions: for Impurity profile (in words): condition d): 40° C./75% RH
Procedure: Contemporaneously, the impurity analysis in the conditions a)-d) of T/% RH were carried out.
As a confirmation of such evidence, a test for the evaluation of the impurity percentage of the sample subjected to the same conditions a)-d) of T/% RH was parallely carried out. The experimental values in Table 4 were obtained.

[2] = Stability test of BTG 1640 salts under storage conditions: purity; format: physicochemical; conditions: for Purity %: time 0 (months)
Procedure: Samples of 100 mg each of BTG 1640 hydrochloride were subjected to the following preservation conditions:
The purities were then analyzed periodically, initially every three months, in order to underline possible variations.
Samples of 100 mg each of BTG 1640 oxalate prepared according to example 1B were subjected to the following preservation conditions:
Quarterly and in an overall period of nine months its purity was then analyzed in order to point out possible variations.
The stabilities were then evaluated by subjecting samples of 100 mg of each salt to the following analogous preservation conditions:
Quarterly and in an overall period of nine months their purity was then analyzed in order to underline possible variations.

[3] = Absorption kinetic after oral administration: plasma concentration of BTG 1640; format: in vivo, rats Sprague Dawley; conditions: rat
Procedure: Absorption extent and rate of molecule BTG 1640 in its forms of oxalate and hydrochloride salts were evaluated.
With this intent, the two salts were dispersed in an aqueous suspension of arabic gum at 5% thus obtaining two formulations, each one orally administered through oesophageous gavage at dose of 10 mg/kg (expressed as free base of BTG 1640) to five rats Sprague Dawley.
Plasma concentration of molecule BTG 1640 was determined at different time points (see Table 7).

[4] = test system: female CD-1 mice; assay: Acute oral toxicity; format: in vivo; conditions: for Clinical signs / Histopathological examination of kidneys: female CD-1 mice
Procedure: Acute oral toxicity of salts hydrochloride and oxalate of BTG-1640 was evaluated.
The two salts were dispersed in an aqueous suspension, thus obtaining two formulations, each one orally administered through oesophageous gavage at dose of 2000 mg/kg bw (expressed as free base of BTG 1640) to one of two groups comprising three female CD-1 mice per group.
The observation lasted 14 days.

[5] = T = 25° C., humidity 60% RH, time 0 (months)
[6] = T = 30° C., humidity 65% RH, time 0 (months)
[7] = condition d): 40° C./75% RH, up to six months
[8] = Sprague Dawley, in vivo, po, 10 mg/kg
[9] = T = 40° C., humidity 75% RH, time 0 (months)
[10] = 2000 mg/kg bw oral (as free base)

| SMILES | % impurities [1, 5] [%] | % impurities [1, 6] [%] | Stability compared with BTG 1640 hydrochloride (in words) ([2]; conditions a)-d)) | Stability (in words) [2, 7] | % impurities ([1]; T = 5° C., time 0 (months)) [%] | % impurities [1, 9] [%] | Impurity profile (in words) [1] | Clinical signs [4, 10] | Histopathological examination of kidneys [4, 10] | also measured |
| --- | --- | --- | --- | --- | --- | --- | --- | --- | --- | --- |
| CN1OC2CCCC(=O)C2C1Cc1ccccc1.O=C(O)CCC(=O)O (stereo not drawn) [BTG 1640 succinate] | 0.77 | 0.77 | even worse |  |  |  |  |  |  | Stability (in words) ([2]; all observation conditions a)-d), from the third month): shows degradation |
| CN1OC2CCCC(=O)C2C1Cc1ccccc1.O=C(O)/C=C\C(=O)O (stereo not drawn) [BTG 1640 maleate] | 0.23 | 0.23 | even worse | degrades in unacceptable way |  |  |  |  |  | Stability (in words) ([2]; condition c) 30° C./65% RH, at sixth month): considerable degradation; Stability (in words) ([2]; conditions a) and b)): acceptable profile |
| CN1OC2CCCC(=O)C2C1Cc1ccccc1.CS(=O)(=O)O (stereo not drawn) [BTG 1640 methanesulphonate] | 0.42 | 0.42 | even worse |  |  |  |  |  |  | Stability (in words) ([2]; conditions b)-d)): begins to degrade already after three months |
| CN1OC2CCCC(=O)C2C1Cc1ccccc1 [BTG 1640 oxalate, oxalate salt of rel-(3R,3aS,7aS)-3-benzyl-2-methyl-2,3,3a,4,5,6,7,7a-octahydrobenzo[d]isoxazol-4-one] | 0.27 | 0.27 |  |  | 0.27 | 0.27 | invariable impurity profile | quickly reversible neurological signs | focal and moderate balloon degeneration of the epithelium in convoluted tubules | concentration at 2 minutes [3, 8]: 2050 ng/mL; concentration at 5 minutes [3, 8]: 1870 ng/mL; concentration at 30 minutes [3, 8]: 390 ng/mL; concentration at 300 minutes [3, 8]: 0 ng/mL; Absorption compared with hydrochloride (in words) ([3]; in vivo, po, 10 mg/kg): higher absorption; % impurities ([1]; T = 5° C., time 3 (months)): 0.33%; % impurities ([1]; T = 5° C., time 9 (months)): 0.29%; % impurities ([1]; T = 25° C., humidity 60% RH, time 3 (months)): 0.30%; % impurities ([1]; T = 30° C., humidity 65% RH, time 3 (months)): 0.28%; Toxicity compared with hydrochloride (in words) ([4]; 2000 mg/kg bw oral, female mice): less toxic; Stability compared with BTG 1640 hydrochloride (in words) [2]: higher stability; Purity % ([2]; T = 5° C.): 99.7%; Purity % ([2]; T = 25° C., humidity 60% RH): 99.7%; Purity % ([2]; T = 30° C., humidity 65% RH): 99.7%; Purity % ([2]; T = 40° C., humidity 75% RH): 99.7% |
| CN1OC2CCCC(=O)C2C1Cc1ccccc1.Cl (stereo not drawn) [BTG 1640 hydrochloride, reference compound] | 0.36 | 0.36 |  | strong instability | 0.36 | 0.36 | unacceptable percentage of impurities | Lethargy, ataxia, aggressiveness and vocalization | small foci of acute tubular necrosis in the cortex, balloon degeneration of the epithelium and dilatation of convoluted tubules | BTG 1640 free base concentration in plasma ([3]; oral gavage 10 mg/kg (as free base), 5% arabic gum suspension, 300 minutes): 0 µg/mL; Lethality ([4]; 2000 mg/kg bw oral (as free base), three female CD-1 mice, 14 days observation): lethal in two animals out of three; Stability (in words) ([2]; conditions a)-c): 5° C., 25° C./60% RH, 30° C./65% RH, 12 months): good stability; Validity time period ([2]; indicated on the basis of the stability results, preserved at 2-8° C.): 12 months |
